Measurements reported in patent US20080058264A1, “AMINO-ACID CONTAINING COMPOSITION FOR INHIBITING ACCUMULATION OF FAT” (AJINOMOTO CO. INC, priority 2006, published 2008).

How the values were obtained:
C57BL/6J male mice [1] = assay: Experimental Example 1: mice fed high-fat feed with added amino acids for eight weeks; format: in vivo; details: compared with HF feed, 2.0% single amino acid or 1.0%+1.0% in high-fat feed; for body weight of mice at autopsy: FIG. 1; for weight of fat tissue of mice at autopsy (accumulation of body fat): FIG. 2
Description: Forty C57BL/6J male mice (eight-weeks old, available from CLEA Japan, Inc.) were fed with CRF-1 powder (available from Oriental Yeast Co., Ltd.) during one-week acclimation period. The mice were then subjected to an experiment at the beginning of nine-weeks old. […] The weight of feed intake was individually measured, and the amount of energy intake was calculated from the energy value corresponding to 1 g of each experimental feed. After the eight-weeks' experiment by feeding with the respective experimental diets, the mice were subjected to autopsy to determine their body weight, and total fat weight including the peri-epididymal fat, peri-renal fat, mesenteric fat, and subcutaneous fat around the femurs.

C57BL/6J male mice [2] = assay: Reference Example: mice fed high-fat feed with 3.0% L-threonine for eight weeks; format: in vivo
Description: Twenty C57BL/6J male mice (eight-weeks old, available from CLEA Japan, Inc.) were fed with CRF-1 powder (available from Oriental Yeast Co., Ltd.) during one-week acclimation period. The mice were then subjected to an experiment at the beginning of nine-weeks old.
The weight of feed intake by the individual mouse was measured, and the amount of energy intake (i.e., kilocalories) was calculated according to the feed from the energy value corresponding to 1 g of each experimental feed. After the eight-weeks' experiment by feeding with the respective experimental diets, the mice were subjected to autopsy to determine their body weight, and the weight of fat tissue sincluding the peri-epididymal fat, peri-renal fat, and mesenteric fat.

SMILES | body weight of mice at autopsy (C57BL/6J male mice [1]) | weight of fat tissue of mice at autopsy (accumulation of body fat) (C57BL/6J male mice [1]) | amount of energy intake during the feeding period (C57BL/6J male mice [2]; 3.0% L-threonine, FIG. 15) | body weight of mice at autopsy (C57BL/6J male mice [2]; compared with HF feed, 3.0% L-threonine (group 3T), FIG. 13) | weight of fat tissue at autopsy (C57BL/6J male mice [2]; compared with HF feed, 3.0% L-threonine (group 3T), FIG. 14)
CC(C)C[C@H](N)C(=O)O [leucine, L-leucine] | not decreased | not decreased |  |  | 
C[C@@H](O)[C@H](N)C(=O)O [threonine, L-threonine] | not decreased | not decreased | not decreased | decreased | decreased
